From patent publication US20220159969A1, “COMPOSITION AND METHOD FOR ENHANCING SPORE GERMINATION AND BIOLOGICAL EFFICACY” (priority 2019, published 2022)

Assays:
Type in all cases: in vivo
[1] = test system: C. rosea f. catenulata J1446 spores; assay: Percent germination of C. rosea f. catenulata J1446 on strawberry leaf discs; details: after 24 h on strawberry leaf discs; germinant added to Prestop® 0.025% (glycine betaine 0.06%/0.6%, yeast extract 0.04%/0.2%) vs Prestop® alone; FIG. 1
Protocol: (§1) Young strawberry plants (Fragaria×ananassa; “Merced” variety) were allowed to grow at least a week before plants were selected for experiments by healthy appearance and having large leaves facing upwards. Spore counts for C. rosea f. catenulata J1446 in the package of Prestop WG used were calculated via haemocytometer to be 1.4×10^10 spores/g and viability of the spores was checked using the MPN (most probably number) method and C. rosea f. catenulata J1446 was calculated to be 3×10^9 CFU/g. […] On average, 0.5 ml of treatment was calculated to be applied per plant. […] The number of spores obtained from each slip was counted using a hemocytometer to determine deposition rate. […]
On the same day, after spraying, two 6 mm leaf discs were cut using a sterilized staples hole punch from two different leaves per plant from five sprayed strawberry plants per treatment group per time period (6, 7, 8 and 24 h) and then dyed with 5 ul lactophenol cotton blue. […] Three viewing areas were chosen at random on each leaf disc and 100 spores were counted: the number that germinated (germ tubes visible at twice the length of the spore) out of that 100 was recorded. Average germination percentages were analyzed per treatment group and per time period.
Data for percent germination assays on strawberry leaves was normal when the distribution was analyzed for both greenhouse and environmental chamber studies. […]

Botrytis cinerea = assay: Greenhouse control of Botrytis cinerea on tomato plants (Example 2); details: Prestop® 0.003% combined with glycine betaine 0.05% or 0.2%, 5 days, necrotic area width, FIG. 3
Protocol: Botrytis cinerea was grown on potato dextrose broth for 1 to 2 weeks without shaking. The resulting mycelial and spores were recovered to produce a liquid inoculum.
Tomato plants, variety Admiro (stage: 3-leaf), were sprayed with the B. cinerea inoculum (5000 sp/ml) then allowed to dry. Then, the treatments were applied by spraying the inoculated tomato plants.
The following treatments were tested (9 repetitions): (T1) Prestop® (C. rosea f. catenulatum J1446) 0.003%; (T2) Prestop® (C. rosea f. catenulatum J1446) 0.003%+glycine betaine (Intracell®, Lallemand) 0.05%; (T3) Prestop® (C. rosea f. catenulatum J1446) 0.003%+glycine betaine (Intracell®, Lallemand) 0.2%; (T4) glycine betaine (Intracell®, Lallemand) 0.2% and (T5) water.
Colby's equation was used to determine the effects expected from the components, as described above. The results were measured at 5 days after the application of the components.

[2] = test system: apple scab (Venturia inaequalis); assay: Apple scab foliar symptoms on potted Gala apple trees (Example 6)
Protocol: The trial was carried out on potted trees of the Gala variety. Six trees per treatment were reserved for this test.
Two application strategies were tested: (a) one application four days before pathogen inoculation; and (b) a first application four days before pathogen inoculation and a second application after pathogen inoculation when a cumulative of 300° C./hour was reached after the inoculation.
A solution of conidia of V. inaequalis was prepared from 2018 scabbed leaves stored in the freezer. The trees were kept under fog for at least one hour before contamination and then at least 12 hours afterwards. The duration was adapted according to ambient temperature and humidity. The spray volume was defined after a blank test to cover sufficient vegetation without reaching the runoff point (between 30 and 50 mL/tree). The treatments were applied using a hand-held sprayer and carried out four days before inoculation with the pathogen (strategies (a) and (b)) and within 300° C./H after inoculation for strategy (2) only.
The frequency and intensity of foliar symptoms of scab were observed. Observation was carried out four to five days after the start of the first spots, using a 0 to 4 rating scale. Trees were scored individually and were made on all the leaves of each tree.

[3] = test system: C. rosea f. catenulata J1446; assay: Hyphal growth of C. rosea f. catenulata J1446 from strawberry leaf discs onto agar plates (greenhouse); details: discs cut 1, 2, 3, 6 days after greenhouse incubation, growth on plate 6 days; germinant added to Prestop® 0.025%; FIG. 2
Protocol: as §1
Two 6 mm leaf discs were cut using a sterilized staples hole punch from two different leaves per plant from five sprayed plants per treatment per time period (1, 2, 3, and 6 days after spraying) and placed adaxial side downwards onto paraquat-chloramphenicol agar (PCA) medium (0.1 mL paraquat, 200 mg chloramphenicol, and 12 g agar per liter of water). […] Growth around the leaf disc was measured with a ruler and recorded as average diameter of growth per day. […] Averages in treatments were analyzed.
Data for growth bioassays from 1, 2, 3, and 6 days of greenhouse incubation were all normal when distribution was analysed. […] Multiple comparisons of the mean (alpha=0.05) were analysed using a Tukey post hoc test.

## C[N+](C)(C)CC(=O)[O-] [glycine betaine]
[1]
  percentage of spore germination of C. rosea J1446: increased
Botrytis cinerea
  efficacy of Prestop® to control B. cinerea: increased
[2]; one application four days before inoculation + a second application after inoculation when a cumulative of 300° C./hour was reached
  Frequency of foliar symptoms of scab: 58.5%
[2]; one application four days before inoculation with the pathogen
  Frequency of foliar symptoms of scab: 59.6%
[3]
  colonization of leaf discs by C. rosea J1446: significantly increased
